Experiments:
Assay in all cases: relative viability vs DMSO control (72 h) (fraction); higher = more viable cells
[1] = system: A204
Procedure, shortened: (§1)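 Sarcoma cell lines were seeded in 384-well plates at densities chosen for 80–90% confluence, then 24 h later given 2.5 µl of serially diluted compound drawn from source plates spanning 10 mM to 0.0002 mM. They were held 72 h at 37 °C, 5% CO2, with 0.1% DMSO vehicle and a 5 µM positive control included. Relative viability was read with ATPLite as percent growth and averaged over up to triplicate wells. Rescaling placed full at 1 and none at 0.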

[2] = system: G401
Procedure, shortened: as §1

[3] = system: HT1080
Procedure, shortened: as §1

[4] = system: KHOS-240S
Procedure, shortened: as §1

[5] = system: KHOS-NP
Procedure, shortened: as §1

[6] = system: RD-ES
Procedure, shortened: as §1

[7] = system: SK-ES-1
Procedure, shortened: as §1

[8] = system: SW1353
Procedure, shortened: as §1

[9] = system: SW684
Procedure, shortened: as §1

[10] = system: SW872
Procedure, shortened: as §1

[11] = system: SW982
Procedure, shortened: as §1

[12] = system: SYO-1
Procedure, shortened: as §1

FC(F)(F)c1ccc(CNc2ccc(Cc3c[nH]c4ncc(Cl)cc34)cn2)cn1 [Pexidartinib]
Conditions | relative viability
[1], 0.00017 µM | 1.14
[1], 0.00051 µM | 1.14
[1], 0.00152 µM | 1.09
[1], 0.00457 µM | 1.08
[1], 0.01372 µM | 1.07
[1], 0.04115 µM | 1.08
[1], 0.1235 µM | 1.05
[1], 0.3704 µM | 0.898
[1], 1.111 µM | 0.576
[1], 3.333 µM | 0.463
[1], 10 µM | 0.393
[2], 0.00017 µM | 1.03
[2], 0.00051 µM | 1.036
[2], 0.00152 µM | 1.03
[2], 0.00457 µM | 1.05
[2], 0.01372 µM | 1.02
[2], 0.04115 µM | 1
[2], 0.1235 µM | 0.685
[2], 0.3704 µM | 0.9956
[2], 1.111 µM | 0.9873
[2], 3.333 µM | 0.95
[2], 10 µM | 0.8332
[3], 0.00017 µM | 1.14
[3], 0.00051 µM | 1.12
[3], 0.00152 µM | 1.12
[3], 0.00457 µM | 1.05
[3], 0.01372 µM | 1.1
[3], 0.04115 µM | 1.1
[3], 0.1235 µM | 1.06
[3], 0.3704 µM | 1.08
[3], 1.111 µM | 1.05
[3], 3.333 µM | 1.065
[3], 10 µM | 1.02
[4], 0.00017 µM | 1.09
[4], 0.00051 µM | 1.07
[4], 0.00152 µM | 1.07
[4], 0.00457 µM | 1.08
[4], 0.01372 µM | 1.08
[4], 0.04115 µM | 1.08
[4], 0.1235 µM | 1.1
[4], 0.3704 µM | 1.06
[4], 1.111 µM | 0.997
[4], 3.333 µM | 1
[4], 10 µM | 0.913
[5], 0.00017 µM | 1.106
[5], 0.00051 µM | 1.1
[5], 0.00152 µM | 1.084
[5], 0.00457 µM | 1.08
[5], 0.01372 µM | 1.07
[5], 0.04115 µM | 1.05
[5], 0.1235 µM | 1.05
[5], 0.3704 µM | 1.032
[5], 1.111 µM | 1.024
[5], 3.333 µM | 1.022
[5], 10 µM | 0.987
[6], 0.00017 µM | 0.973
[6], 0.00051 µM | 0.99
[6], 0.00152 µM | 1.01
[6], 0.00457 µM | 1.02
[6], 0.01372 µM | 1.02
[6], 0.04115 µM | 0.982
[6], 0.1235 µM | 1.01
[6], 0.3704 µM | 0.998
[6], 1.111 µM | 0.977
[6], 3.333 µM | 0.959
[6], 10 µM | 0.969
[7], 0.00017 µM | 1.05
[7], 0.00051 µM | 1.03
[7], 0.00152 µM | 1.02
[7], 0.00457 µM | 1.07
[7], 0.01372 µM | 1.04
[7], 0.04115 µM | 1.06
[7], 0.1235 µM | 1.03
[7], 0.3704 µM | 1.03
[7], 1.111 µM | 0.978
[7], 3.333 µM | 1.02
[7], 10 µM | 0.915
[8], 0.00017 µM | 1.07
[8], 0.00051 µM | 1.03
[8], 0.00152 µM | 0.993
[8], 0.00457 µM | 1.02
[8], 0.01372 µM | 0.988
[8], 0.04115 µM | 1.01
[8], 0.1235 µM | 1
[8], 0.3704 µM | 0.975
[8], 1.111 µM | 0.897
[8], 3.333 µM | 0.896
[8], 10 µM | 0.85
[9], 0.00017 µM | 1.14
[9], 0.00051 µM | 1.2
[9], 0.00152 µM | 1.19
[9], 0.00457 µM | 1.2
[9], 0.01372 µM | 1.15
[9], 0.04115 µM | 1.15
[9], 0.1235 µM | 1.16
[9], 0.3704 µM | 1.13
[9], 1.111 µM | 1.13
[9], 3.333 µM | 1.14
[9], 10 µM | 1.12
[10], 0.00017 µM | 1.12
[10], 0.00051 µM | 1.13
[10], 0.00152 µM | 1.1
[10], 0.00457 µM | 1.08
[10], 0.01372 µM | 1.05
[10], 0.04115 µM | 1.06
[10], 0.1235 µM | 1.05
[10], 0.3704 µM | 1.03
[10], 1.111 µM | 1.01
[10], 3.333 µM | 0.999
[10], 10 µM | 0.974
[11], 0.00017 µM | 1.02
[11], 0.00051 µM | 1.05
[11], 0.00152 µM | 1.06
[11], 0.00457 µM | 1.07
[11], 0.01372 µM | 1.05
[11], 0.04115 µM | 1.05
[11], 0.1235 µM | 1.06
[11], 0.3704 µM | 1.05
[11], 1.111 µM | 1.09
[11], 3.333 µM | 1.07
[11], 10 µM | 1.12
[12], 0.00017 µM | 1.03
[12], 0.00051 µM | 1.03
[12], 0.00152 µM | 0.953
[12], 0.00457 µM | 0.94
[12], 0.01372 µM | 0.927
[12], 0.04115 µM | 0.925
[12], 0.1235 µM | 0.868
[12], 0.3704 µM | 0.8
[12], 1.111 µM | 0.733
[12], 3.333 µM | 0.701
[12], 10 µM | 0.659

CO[C@H]1C[C@@H]2CC[C@@H](C)[C@@](O)(O2)C(=O)C(=O)N2CCCC[C@H]2C(=O)O[C@H]([C@H](C)C[C@@H]2CC[C@@H](O)[C@H](OC)C2)CC(=O)[C@H](C)/C=C(\C)[C@@H](O)[C@@H](OC)C(=O)[C@H](C)C[C@H](C)/C=C/C=C/C=C/1C [Rapamycin]
Conditions | relative viability
[1], 0.00017 µM | 0.894
[1], 0.00051 µM | 0.707
[1], 0.00152 µM | 0.614
[1], 0.00457 µM | 0.542
[1], 0.01372 µM | 0.513
[1], 0.04115 µM | 0.499
[1], 0.1235 µM | 0.489
[1], 0.3704 µM | 0.464
[1], 1.111 µM | 0.453
[1], 3.333 µM | 0.425
[1], 10 µM | 0.408
[2], 0.00017 µM | 0.901
[2], 0.00051 µM | 0.856
[2], 0.00152 µM | 0.815
[2], 0.00457 µM | 0.784
[2], 0.01372 µM | 0.759
[2], 0.04115 µM | 0.717
[2], 0.1235 µM | 0.687
[2], 0.3704 µM | 0.676
[2], 1.111 µM | 0.634
[2], 3.333 µM | 0.613
[2], 10 µM | 0.589
[3], 0.00017 µM | 1.04
[3], 0.00051 µM | 1.03
[3], 0.00152 µM | 1.02
[3], 0.00457 µM | 0.97
[3], 0.01372 µM | 0.966
[3], 0.04115 µM | 0.972
[3], 0.1235 µM | 0.932
[3], 0.3704 µM | 0.917
[3], 1.111 µM | 0.905
[3], 3.333 µM | 0.869
[3], 10 µM | 0.851
[4], 0.00017 µM | 0.9934
[4], 0.00051 µM | 0.975
[4], 0.00152 µM | 0.942
[4], 0.00457 µM | 0.858
[4], 0.01372 µM | 0.809
[4], 0.04115 µM | 0.775
[4], 0.1235 µM | 0.766
[4], 0.3704 µM | 0.746
[4], 1.111 µM | 0.734
[4], 3.333 µM | 0.7183
[4], 10 µM | 0.688
[5], 0.00017 µM | 1.04
[5], 0.00051 µM | 1.05
[5], 0.00152 µM | 1.07
[5], 0.00457 µM | 1.07
[5], 0.01372 µM | 1.06
[5], 0.04115 µM | 1.06
[5], 0.1235 µM | 1.03
[5], 0.3704 µM | 1.04
[5], 1.111 µM | 1.05
[5], 3.333 µM | 1.02
[5], 10 µM | 0.882
[6], 0.00017 µM | 0.966
[6], 0.00051 µM | 0.962
[6], 0.00152 µM | 0.868
[6], 0.00457 µM | 0.833
[6], 0.01372 µM | 0.77
[6], 0.04115 µM | 0.712
[6], 0.1235 µM | 0.665
[6], 0.3704 µM | 0.677
[6], 1.111 µM | 0.687
[6], 3.333 µM | 0.647
[6], 10 µM | 0.611
[7], 0.00017 µM | 0.953
[7], 0.00051 µM | 0.866
[7], 0.00152 µM | 0.737
[7], 0.00457 µM | 0.63
[7], 0.01372 µM | 0.564
[7], 0.04115 µM | 0.554
[7], 0.1235 µM | 0.51
[7], 0.3704 µM | 0.512
[7], 1.111 µM | 0.5
[7], 3.333 µM | 0.482
[7], 10 µM | 0.457
[8], 0.00017 µM | 0.91
[8], 0.00051 µM | 0.851
[8], 0.00152 µM | 0.825
[8], 0.00457 µM | 0.796
[8], 0.01372 µM | 0.795
[8], 0.04115 µM | 0.782
[8], 0.1235 µM | 0.747
[8], 0.3704 µM | 0.714
[8], 1.111 µM | 0.7
[8], 3.333 µM | 0.674
[8], 10 µM | 0.683
[9], 0.00017 µM | 0.9947
[9], 0.00051 µM | 0.936
[9], 0.00152 µM | 0.812
[9], 0.00457 µM | 0.743
[9], 0.01372 µM | 0.678
[9], 0.04115 µM | 0.681
[9], 0.1235 µM | 0.718
[9], 0.3704 µM | 0.718
[9], 1.111 µM | 0.75
[9], 3.333 µM | 0.752
[9], 10 µM | 0.682
[10], 0.00017 µM | 0.867
[10], 0.00051 µM | 0.787
[10], 0.00152 µM | 0.729
[10], 0.00457 µM | 0.659
[10], 0.01372 µM | 0.602
[10], 0.04115 µM | 0.565
[10], 0.1235 µM | 0.543
[10], 0.3704 µM | 0.548
[10], 1.111 µM | 0.561
[10], 3.333 µM | 0.567
[10], 10 µM | 0.553
[11], 0.00017 µM | 0.919
[11], 0.00051 µM | 0.86
[11], 0.00152 µM | 0.763
[11], 0.00457 µM | 0.695
[11], 0.01372 µM | 0.634
[11], 0.04115 µM | 0.597
[11], 0.1235 µM | 0.567
[11], 0.3704 µM | 0.603
[11], 1.111 µM | 0.586
[11], 3.333 µM | 0.597
[11], 10 µM | 0.591
[12], 0.00017 µM | 0.954
[12], 0.00051 µM | 0.893
[12], 0.00152 µM | 0.875
[12], 0.00457 µM | 0.836
[12], 0.01372 µM | 0.826
[12], 0.04115 µM | 0.792
[12], 0.1235 µM | 0.767
[12], 0.3704 µM | 0.734
[12], 1.111 µM | 0.706
[12], 3.333 µM | 0.683
[12], 10 µM | 0.66

From the supplement of paper PMC10883282
